From article PMC9037833 (RSC Advances, 2021)

Target: T1, human A3AR (Homo sapiens, UniProt P0DMS8)
T1 sequence (P0DMS8 1-318): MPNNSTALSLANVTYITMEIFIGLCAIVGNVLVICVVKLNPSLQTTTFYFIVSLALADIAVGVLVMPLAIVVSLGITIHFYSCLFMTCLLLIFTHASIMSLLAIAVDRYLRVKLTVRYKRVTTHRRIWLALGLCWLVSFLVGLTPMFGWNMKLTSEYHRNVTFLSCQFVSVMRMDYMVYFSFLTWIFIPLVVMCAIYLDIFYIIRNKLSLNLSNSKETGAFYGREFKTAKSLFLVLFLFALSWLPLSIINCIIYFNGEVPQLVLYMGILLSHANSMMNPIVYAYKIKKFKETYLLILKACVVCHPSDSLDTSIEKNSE
Type: binding

CCSc1nc(N)c2ncn([C@H]3[C@H](O)[C@H](O)[C@]4(CO)C[C@H]34)c2n1 [Compound 8b, (1R,2R,3S,4R,5S)-4-(6-Amino-2-(ethylthio)-9H-purin-9-yl)-1-(hydroxymethyl)bicyclo[3.1.0]hexane-2,3-diol]
Ki: 970 ± 60 nM

Nc1nc(SCc2ccccc2)nc2c1ncn2[C@H]1[C@H](O)[C@H](O)[C@]2(CO)C[C@H]12 [Compound 8e, (1R,2R,3S,4R,5S)-4-(6-Amino-2-(benzylthio)-9H-purin-9-yl)-1-(hydroxymethyl)bicyclo[3.1.0]hexane-2,3-diol]
Ki: 49.8 ± 5.5 nM
fold higher A3AR affinity than 8a (ratio of Ki values vs 8a at hA3AR): 30 fold

Nc1nc(SCCc2ccccc2)nc2c1ncn2[C@H]1[C@H](O)[C@H](O)[C@]2(CO)C[C@H]12 [Compound 8f, (1R,2R,3S,4R,5S)-4-(6-Amino-2-(phenethylthio)-9H-purin-9-yl)-1-(hydroxymethyl)bicyclo[3.1.0]hexane-2,3-diol]
Ki: 291 ± 89 nM

COc1nc(N)c2ncn([C@H]3[C@H](O)[C@H](O)[C@]4(CO)C[C@H]34)c2n1 [Compound 8g, (1R,2R,3S,4R,5S)-4-(6-Amino-2-methoxy-9H-purin-9-yl)-1-(hydroxymethyl)bicyclo[3.1.0]hexane-2,3-diol]
Ki: 1140 ± 84 nM

CCCCCCSc1nc(N)c2ncn([C@H]3[C@H](O)[C@H](O)[C@]4(CO)C[C@H]34)c2n1 [Compound 8c, (1R,2R,3S,4R,5S)-4-(6-Amino-2-(hexylthio)-9H-purin-9-yl)-1-(hydroxymethyl)bicyclo[3.1.0]hexane-2,3-diol]
Ki: 548 ± 44 nM

Nc1nc(SC2CCCCC2)nc2c1ncn2[C@H]1[C@H](O)[C@H](O)[C@]2(CO)C[C@H]12 [Compound 8d, (1R,2R,3S,4R,5S)-4-(6-Amino-2-(cyclohexylthio)-9H-purin-9-yl)-1-(hydroxymethyl)bicyclo[3.1.0]hexane-2,3-diol]
Ki: 1080 ± 90 nM
